“Also recorded” adds a separate entry of the source.

For test [1], the target named is T1, DGKθ (Homo sapiens, UniProt P52824).
T1 construct: expressed in transfected cells; host or cells: 293T cells, transient transfection (Lipofectamine 3000), crude homogenate
T1 sequence (P52824 1-942): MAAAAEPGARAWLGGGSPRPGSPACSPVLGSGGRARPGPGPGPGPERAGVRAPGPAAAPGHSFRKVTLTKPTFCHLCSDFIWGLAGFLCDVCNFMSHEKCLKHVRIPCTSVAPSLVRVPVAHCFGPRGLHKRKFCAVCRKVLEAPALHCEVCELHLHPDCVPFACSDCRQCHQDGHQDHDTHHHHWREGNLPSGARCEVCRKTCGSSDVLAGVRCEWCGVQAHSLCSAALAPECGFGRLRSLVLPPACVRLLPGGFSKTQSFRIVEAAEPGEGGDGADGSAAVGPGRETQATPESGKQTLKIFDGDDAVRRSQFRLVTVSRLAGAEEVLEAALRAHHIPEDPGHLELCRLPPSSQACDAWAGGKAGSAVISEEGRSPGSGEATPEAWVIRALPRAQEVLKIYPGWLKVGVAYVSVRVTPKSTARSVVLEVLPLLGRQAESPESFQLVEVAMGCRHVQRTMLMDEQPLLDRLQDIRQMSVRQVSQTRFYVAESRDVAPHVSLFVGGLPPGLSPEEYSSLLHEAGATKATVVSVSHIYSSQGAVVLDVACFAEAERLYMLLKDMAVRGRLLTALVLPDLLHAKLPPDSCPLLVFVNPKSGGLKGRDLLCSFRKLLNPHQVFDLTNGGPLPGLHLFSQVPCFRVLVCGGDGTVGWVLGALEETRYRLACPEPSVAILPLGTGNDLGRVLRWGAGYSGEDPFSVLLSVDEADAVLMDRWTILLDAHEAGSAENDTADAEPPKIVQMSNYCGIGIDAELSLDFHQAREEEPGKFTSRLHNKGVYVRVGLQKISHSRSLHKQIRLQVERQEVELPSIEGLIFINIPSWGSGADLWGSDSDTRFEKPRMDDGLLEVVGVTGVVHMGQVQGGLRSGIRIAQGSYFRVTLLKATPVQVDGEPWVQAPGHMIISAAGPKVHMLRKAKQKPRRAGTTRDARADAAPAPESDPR
The experiment in a line: Isoform specificity, DGKθ homogenates of transfected 293T cells. The format is biochemical. Conditions: 100 µM; 293T homogenates. As to the method:
293T cells were transiently transfected with indicated DGK isoform plasmid DNA using Lipofectamine 3000, Invitrogen (Carlsbad, CA). Forty eight hours after transfection, cells were harvested and homogenised with a 29 G-needle using 500 µL of homogenate buffer for each dish and immediately stored in aliquots at –80 °C. Cells transfected with empty vector were used as controls, overexpressed DGK has an activity >50 folds the endogenous.
Essentionally, the same procedure was followed as reported previously in Velnati et al.[9] In brief, DGK activity was assayed by measuring initial velocities (5 min at 27 °C) in presence of saturating substrate concentrations. Reaction conditions: 0.9 µg/µL 1,2-dioleoyl-sn-glycerol, 5 mM ATP, 0.01 µCi/µL [γ^32P]-ATP, 1 mM sodium orthovanadate, 10 mM MgCl2, 1.2 mM EGTA in 7.5 mM Hepes pH 8[12]. Reaction mixture is assembled mixing enzyme (24.5 µL of homogenate), 100× inhibitor or DMSO (0.5 µL), 5× ATP solution (10 µL of 25 mM ATP, 0.05 µCi/µL [γ^32P]-ATP (Perkin-Elmer, Milan, Italy), 5 mM sodium orthovanadate, 50 mM MgCl2), and 3.3× DAG solution (15 µL of 3 µg/µL 1,2-dioleoyl-sn-glycerol resuspended by sonication in 4 mM EGTA in 25 mM Hepes pH 8). […] TLC was run 10 cm and dried before radioactive signals were detected by GS-250 molecular imager and was quantified by quantity one (Bio-Rad, Hercules, CA) software assuring the absence of saturated spots. […]

In test [2] the test system is serotonin receptors. Also on record: method as in PMID 30611057. Conditions: cited from earlier work.
The test system of test [3] is MCF7 cells. The experiment in a line: Migration assay (serum induced wound healing). Format: cell-based. Particulars: 10 µM, 15 h, in presence of serum, vs vehicle (DMSO). As to the method: Michigan Cancer Foundation 7 (MCF7) cells were cultured in DMEM with 10% FBS + 1% penicillin/streptomycin and cultures were maintained by splitting them for every 2–3 days using trypsin–EDTA 0.25%.
Cell migration assays were performed using the Culture-Insert 2 well in µ-Dish (ibidi GmbH, Martinsried, Germany).
Briefly, 25,000 MCF7 cells were plated in each well and cultured for 24 h. The day after, the culture insert was removed and the cells were washed with PBS before treating them with respective DGKα inhibitors (10 µM) or DMSO for 15 h in complete medium (DMEM 10% FBS + 1% penicillin/streptomycin), while medium without FBS was used as a negative control for migration.
Phase-contrast pictures were taken immediately after treatment (0 h) and after 15 h under 5× magnification.
Finally, wound areas were determined using ImageJ software (NIH, , Bethesda, MD). Wound reduction was calculated by using the following formula: (wound area at 15 h/wound at 0 h)×100, the values obtained were expressed as the percentage of wound area compared to the initial area.
To evaluate if our newly synthetised DGKα inhibitors were effective in impairing cancer cell migration, we measured serum induced wound healing in MCF7 breast cancer cells in presence of 10 µM inhibitor. […]
Figure 10. […] Results are expressed as the percentage of wound area compared to the initial area. […]

`Cc1ccc2c(C(=O)CN3CCN(C(=O)c4ccco4)CC3)c(C)[nH]c2c1` [Amb639752]: in test [1], the “effect on DGKθ activity” value is listed as “do not have significant effects”. Further, in test [2], the anti-serotoninergic activity entry is recorded as “no effects on serotonin activity; also recorded: devoid of anti-serotoninergic activity”.
Take `Cc1ccc2c(C(=O)CN3CCN(C(=O)c4ccc(Cl)cc4)CC3)c(C)[nH]c2c1` [Compound 11, 2-(4-(4-Chlorobenzoyl)piperazin-1-yl)-1-(2,6-dimethyl-1H-indol-3-yl)ethan-1-one]: the “cell migration (wound closure)” value in test [3] is “reduce the migration”.
With `Cc1ccc(C(=O)N2CCN(CC(=O)c3c(C)[nH]c4cc(C)ccc34)CC2)cc1` [Compound 20, 1-(2,6-Dimethyl-1H-indol-3-yl)-2-(4-(4-methylbenzoyl)piperazin-1-yl)ethan-1-one], the “effect on DGKθ activity” value in test [1] is “activator”. Further, the “cell migration (wound closure)” value in test [3] was “reduce the migration”.
